In US8946426B2, “Substituted bicyclic heterocyclic compounds as gamma secretase modulators” (Janssen Pharmaceuticals, Inc., priority 2009, dated 2015):

Legend:
[1] = system: Aβtotal; test: Method 2: Aβtotal Alphalisa in supernatant of SKNBE2 cells carrying APP 695-wild type (Table 7c); assay type: cell-based; details: Method 2, Alphalisa, overnight incubation
Procedure, shortened: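 SKNBE2 cells expressing wild-type APP695 incubated overnight at 37° C with test compound, 10^4 cells/well. Supernatant Aβ42 (C-terminal JRF/cAβ42/26 with N-terminal JRF/AβN/25) and Aβtotal (JRF/AβN/25 with 4G8) quantified by AlphaLISA. IC50 from 4-parameter fit of percent of untreated control.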

[2] = system: Aβtotal; test: Method 1: Aβtotal sandwich ELISA in supernatant of SKNBE2 cells carrying APP 695-wild type (Tables 7a, 7b); assay type: cell-based
Procedure, shortened: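 SKNBE2 cells expressing wild-type APP695 were exposed to compound for 18 Hours in Ultraculture with 1% glutamine. Aβtotal in the supernatant was read by 6E10-capture/biotinylated 4G8 sandwich ELISA with a fluorogenic peroxidase read-out, and WST-1 checked toxicity. IC50 came from a 4-parameter fit of percent inhibition or percent of control versus concentration.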

[3] = system: Notch-processing activity of the γ-secretase-complex; test: Notch cell-free assay (NICD production from recombinant Notch substrate N99); assay type: biochemical; details: 1 μM test compound; 0.3-0.5 μM mouse Notch substrate; enriched gamma secretase; 37° C., 6 to 22 h; western blot; control GSI concentration not given
Method: The Notch transmembrane domain is cleaved by gamma secretase to release Notch Intracellular C-terminal Domain (NICD).
To monitor the effect of compounds on NICD production, a recombinant Notch substrate (N99) was prepared. The Notch substrate, comprised of mouse Notch fragment (V1711-E1809), an N-terminal methionine and a C-terminal FLAG sequence ([…]), was expressed in E. coli and purified on a column containing an anti-FLAG M2 affinity matrix.
A typical Notch cell-free assay consisted of 0.3-0.5 μM Notch substrate, an enriched preparation of gamma secretase and 1 μM of a test compound (compounds 16, 18 and 106 of the present invention). Controls included a gamma secretase inhibitor (GSI), such as (2S)—N-[2-(3,5-difluorophenyl)acetyl]-L-alanyl-2-phenyl-glycine 1,1-dimethylethyl ester (DAPT) or (2S)-2-hydroxy-3-methyl-N-[(1S)-1-methyl-2-oxo-2-[[(1S)-2,3,4,5-tetrahydro-3-methyl-2-oxo-1H-3-benzazepin-1-yl]amino]ethyl]-butanamide (Semagacestat), and DMSO, the final concentration of DMSO being 1%. Recombinant Notch substrate was pre-treated with 17 μM DTT (1,4-dithiothreitol) and 0.02% SDS (Sodium Dodecyl Sulfate) and heated at 65° C. for 10 min. The mixture of substrate, gamma secretase and compound/DMSO was incubated at 37° C. for 6 to 22 hours (h). Six-hour incubation was sufficient to produce the maximal amount of NICD and the cleaved product remained stable for an additional 16 H. Reaction products were processed for SDS PAGE (Sodium Dodecyl Sulfate-Poly Acrylamide Gel Electrophoresis) and western blotting. Blots were probed with an anti-Flag M2 antibody, followed by LI-COR infrared secondary antibody, and analyzed with the Odyssey Infrared Imaging System (LI-COR® Biosciences).

[4] = Table 7b, averaged IC50, non-linear regression of percentage of control vs log concentration, 4-parameter equation
[5] = Homo sapiens, SKNBE2, Table 7b, averaged IC50, non-linear regression of percentage of control vs log concentration, 4-parameter equation
[6] = Homo sapiens, Table 7a, SKNBE2 cells, compounds 18 h, XLfit 4-parameter fit of percent inhibition, top/bottom fixed to 100/0, hill slope 1

Compound	IC50 [1] [µM]	IC50 ([1]; Homo sapiens) [µM]	melting point [°C]	IC50 [2, 4] [µM]	IC50 [2, 5] [µM]	other results
COc1cc(Nc2cccc3c2nc(CCC(F)(F)F)n3C)ccc1-c1ocnc1C [Compound 11]		> 10				
COc1cc(Nc2cc(C(F)(F)F)nn3cc(C)nc23)ccc1-c1cnc(C)o1 [Compound 195]	> 10			> 10		
Cc1ncc(-c2ccc(Nc3nccc4c3nc(-c3ccc(F)cc3)n4C)cc2F)o1 [Compound 17]		> 10			> 3	
COc1cc(Nc2cncc3c2nc(-c2ccc(F)cc2)n3C)ccc1-c1cnc(C)o1 [Compound 186]	> 10			> 10		

Further lines, with some results ahead:

IC50 [1] [µM]	IC50 ([1]; Homo sapiens) [µM]	melting point [°C]	IC50 [2, 4] [µM]	IC50 [2, 5] [µM]	Compound	other results
> 10					COc1cc(Nc2nc(C(F)(F)F)cn3cc(C)nc23)ccc1-c1cnc(C)o1 [Compound 170]	
	> 10	195.4			Cc1ncoc1-c1ccc(Nc2cccc3c2nc(-c2ccc(F)cc2)n3C)nc1 [Compound 10]	
> 10			> 3		COc1cccc(-c2nc3c(Nc4ccc(-c5cnc(C)o5)nc4)cc(F)cc3n2C)c1 [Compound 105]	
	8.71	189		> 3	COc1cc(Nc2cccc3c2nc(-c2ccc(F)cc2)n3C)ccc1-c1cnc(C)o1 [Compound 16]	IC50 [2, 6]: > 3 µM; effect on the Notch-processing activity of the γ-secretase-complex (production of NICD) [3]: did not show an effect
	7.76			> 3	COc1cc(Nc2cccc3c2nc(-c2ccc(F)cc2)n3C)ccc1-c1ocnc1C [Compound 12]	IC50 [2, 6]: > 1 µM
	6.46	133.4		> 3	Cc1ncc(-c2ccc(Nc3cccc4c3nc(-c3ccc(F)cc3)n4C(C)C)cn2)o1 [Compound 18]	effect on the Notch-processing activity of the γ-secretase-complex (production of NICD) [3]: did not show an effect
